Measurements taken from patent US8378071B2, “Peptide epitopes of VEGFR-2/KDR that inhibit angiogenesis” (The United States of America as Represented by the …, priority 2005, dated 2013).

How the values were obtained:
[1] = biological target: T1, HLA-A2 (Homo sapiens, UniProt P04439, D140Y/D185E/D98H/E176V/E277Q/G131W/G231S/I119V/I121R/I166T/I218V/L300P/L318F/N151K/N90K/P208A/P217A/Q86G/Q94H/R138H/R169H/T345S); test: T2 binding assay (HLA-A2 stabilization); details: T2 cells, FIG. 7
T1 construct: endogenous in cells; host or cells: T2 cells
Text: The ability of any of the above described peptides to bind MHC Class I can be confirmed using assays available in the art. For example, the ability of a murine VEGFR-2/KDR peptide to bind a mouse Class I molecule, such as H-2 Db can be determined in a MHC stabilization assay employing RMA-S cells as described in Lyman et al., J. Virol. 76:3125-3134, 2002, and in the EXAMPLES Section below. The ability of a human VEGFR-2/KDR peptide to bind a human Class I molecule, such as an HLA-A2 protein can be evaluated in a T2 MHC binding assay as described by Cerundolo et al., Nature 342:449-452, 1990. In brief, T2 cells are cultured in RPMI1640 with 10% FBS, and grown in 5% CO2 at 37° C. […] The level of stabilized HLA-A2 on the surface of the T2 cells is detected using the pan HLA class I monoclonal antibody W6/32 (European Collection of Animal Cell Cultures (ECACC), Porton Down, Salisbury) that recognizes stabilized HLA-A2 complexes. The primary monoclonal antibody can be labeled or can be detected using, e.g., a labeled goat antimouse IgG (Cambridge Biosciences, Cambridge, United Kingdom) as the second layer. Samples are fixed in 1% paraformaldehyde in PBS prior to analysis and analyzed on a Becton Dickinson FACSCAN®. […]

[2] = biological target: T2, H-2 Db (Mus musculus, UniProt P01899); test: RMA-S binding assay (MHC stabilization, flow cytometry); details: for Concentration at FI=0.5: RMA-S cells loaded 16 to 18 h at 37° C, FI = fluorescence with peptide/without peptide - 1; for Binding to H-2 Db (in words): RMA-S cells, FIG. 1
T2 construct: enhance surface expression of the respective MHC class I molecules on these cells by stabilizing the peptide-MHC complex; endogenous in cells; host or cells: RMA-S (H-2b) cells
T2 sequence (P01899 25-362): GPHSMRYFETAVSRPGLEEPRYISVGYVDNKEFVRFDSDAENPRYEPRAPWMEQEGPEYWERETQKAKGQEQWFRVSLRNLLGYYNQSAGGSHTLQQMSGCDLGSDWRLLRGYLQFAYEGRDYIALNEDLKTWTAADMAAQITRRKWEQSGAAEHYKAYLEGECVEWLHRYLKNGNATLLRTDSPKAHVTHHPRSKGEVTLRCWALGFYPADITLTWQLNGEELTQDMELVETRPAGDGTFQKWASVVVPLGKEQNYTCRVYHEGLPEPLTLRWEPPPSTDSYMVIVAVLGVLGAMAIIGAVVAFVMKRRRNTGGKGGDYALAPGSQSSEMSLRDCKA
T2 sequence (P01887 21-119 partner): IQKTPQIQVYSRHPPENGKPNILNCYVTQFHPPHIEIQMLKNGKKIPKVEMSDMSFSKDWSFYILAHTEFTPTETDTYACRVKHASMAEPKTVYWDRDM
Procedure: FIG. 1 is a line graph illustrating results of an RMA-S binding assay. KDR2 and KDR3 bind efficiently to H-2 Db molecules. RMA-S cells were loaded with various peptides for 16 to 18 h at 37° C. Levels of surface class I molecules were assessed by flow cytometric analysis using mouse monoclonal antibodies specific for H-2 Db. FI=Fluoresce measurement after peptides stimulation/Fluoresce measurement without peptide-1. : KDR1, ▴: KDR2, : KDR3, ◯: wild type P53 264-272, : HPV 16 E7 49-57. HPV E7 49-57 and Human P53 264-272 serve as positive and negative control respectively. The results shown here are representative of three separate experiments.
To test the binding affinity of these peptides to H-2 Db, an RMA-S binding experiment was performed, and the FI value in the assay was measured. […] The RMA-Binding assays were performed as previously described (Lyman et al., J. Virol. 76:3125-3134, 2002). Briefly, synthetic peptides were dissolved in dimethyl sulfoxide before dilution. For MHC-binding assays, RMA-S cells were loaded with various peptides for 16 to 18 h at 37° C. Levels of surface class I molecules were assessed by flow cytometric analysis (FACScan; Becton Dickinson) using mouse monoclonal antibodies specific for H-2 Db (Southern Biotech, clone No. 28-14-8). FI=Fluorescence after peptides stimulation/Fluorescence without peptide-1.
Previous data have shown that the HPV16E7 49-57 can bind to H-2 Db molecules efficiently and induce a strong CTL response in B6 mice (Feltkamp et al., Eur. J. Immunol. 23:2242-2249, 1993). HPV16E7 49-57 peptide was used as a positive control; and the human P53 264-272, known to bind HLA-A2 but not H-2 Db, was used as a negative control (FIG. 1).

[3] = test system: IFN-γ secreting spleen cells / DLN cells; test: IFN-γ Elispot assay on splenocytes or draining lymph node cells of peptide-vaccinated mice; assay type: in vivo, C57BL/6 mice; details: for IFN-γ secreting cells per million fresh DLN cells: stimulated with syngeneic VEGFR-2/KDR expressing H5V cells, FIG. 2C
Text: FIGS. 2A-C are bar graphs representing the results of IFN-Eli spot assays. Four groups of mice (5 mice per group) were vaccinated with different peptides (KDR1, KDR2, KDR3). Mice were sacrificed, spleen or drained lymph nodes (DLN) cells prepared as described in methods section served as effectors. Syngeneic EL4 cells (3,000 rads) pulsed with peptides or H5V cells after treated with MMC served as stimulators. Irradiated EL4 without peptide or MMC treated allogeneic bEND3 cells as control. Dot bar: EL4 pulsed with irrelevant peptide as negative control; Solid bar: EL4 pulsed with KDR2 or KDR3 respectively; Open bar: EL4 without any peptide; A. Results of fresh spleen cells; B. Results of spleen cells after 1 week restimulation in vitro; C. Cells from fresh drained lymph nodes stimulated with H5V or bEND3 cells.
Mice were immunized with selected peptide, together with murine GM-CSF and anti-mouse CD40 as adjuvants. An emulsion containing 50 μl Incomplete Freud's Adjuvants (IFA, Sigma) with or without 100 […] of peptide and 5 μg murine GM-CSF (Pepro Tech), 20 μg anti-murine CD40 monoclonal antibody (Southern Biotech, Clone number 1C10) was prepared in a final volume of 100 μl. Subcutaneous injections were performed on the tails of the mice with 1 ml syringes and 30 gauge needles. For the Matrigel Plug Assay, two boosts were injected at 4 week intervals.
IFN-γ Elispots assay was performed on draining lymph nodes cells (DLN) or splenocytes collected 2 weeks after vaccination to evaluate the antigen specific immune response against the VEGFR-2/KDR peptides. Elispot plates (Millipore, Bedford, Mass.) were coated with 8 μg of anti-gamma interferon (IFN-γ) antibody per ml in sterile phosphate-buffered saline (PBS) overnight at 4° C. Plates were washed and then blocked with RPMI 1640 with 10% FBS. Fresh splenocytes or cells after 1 week in vitro restimulation were used as effectors. 1 or 5×10^5 effector cells were co-cultured overnight with or without 2×10^5 irradiated (3,000 rads) EL4 cells in 200 μl media at 37° C., 5% CO2 in the presence of appropriate concentration of peptide. When H5V and bEND3 cells in stead of EL4 were used as stimulators, they were treated with 0.1 mg/ml mitomycin C (Sigma, St. Louis) for half an hour at 37° C., then wash three times with PBS. 5×10^4H5V or bEND3 cells were co-cultured overnight with 2×10^5 draining lymph nodes cells. Spots were developed as previously described using biotin-conjugated anti-cytokine antibodies (Endogen, Boston, Mass.) and streptavidin-horseradish peroxidase in 1% BSA-PBS.

[4] = test system: EL4 cells pulsed with peptides; test: 4-hour 51Cr release assay, CTLs from immunized mice, EL4 targets; assay type: cell-based, mouse; details: E:T ratio 50:1; for Percentage of lyses by induced CTLs, control: control for EL4 pulsed with peptide; for Percentage of lyses by induced CTLs: targets EL4 pulsed with the vaccinated peptide
Procedure: (§1) FIGS. 4A-D are line graphs illustrating the results of standard 4 hr ^51Cr release test. Three weeks after immunization, spleen cells were prepared from immunized mice (4-5 mice per group) and restimulated with vaccinated peptides in a 24-well plate in the presence of RPMI 1640 (Invitrogen) with 10% FCS. 10% T-stim was added 48 hours later into the culture media and the cells were incubated for 5 days at 37° C. The CTL activity was tested in a 4-hour ^51Cr release assay. Target cells include VEGFR-2/KDR+H5V (H-2d) and bEND3 (H-2b) endothelial cells, VEGFR-2/KDR-EL4 cells pulsed with peptides or EL4 alone. The percentage of specific lysis was calculated using the formula: (experimental release−spontaneous release)/(maximum release−spontaneous release)×100. Upper panel: effector cells from mice immunized with KDR2, Lower panel: effectors from KDR3 immunized mice.
(§2) Chromium (^51Cr) Release Assays were used to determine whether T cells identified as binding to VEGFR-2/KDR specifically targeted endothelial cells. Mice were vaccinated twice with 5 μg GM-CSF, 20 μg anti-CD40 and 100 μg peptide per mice. Briefly, spleen cells were prepared from immunized mice (4-5 mice per group) and restimulated with the vaccinated peptides in 24-well plates in RPMI 1640 (Invitrogen) with 10% FCS. Forty-eight hours later, 10% T-stim (BD Bioscience) was added into the culture media. CTL activity was tested in a 4-hour ^51Cr release assay 5 days later. VEGFR-2/KDR+syngeneic H5V (H-2d), allogeneic bEND3 (H-2b) endothelial cells and VEGFR-2/KDR syngeneic EL4 cells pulsed with peptides or EL4 alone served as target cells. The percentage cytotoxicity was calculated using the formula: (experimental release−spontaneous release)/(maximum release−spontaneous release)×100.

[5] = test system: H5V endothelial cells; test: 4-hour 51Cr release assay, CTLs from immunized mice, endothelial cell targets; assay type: cell-based, mouse; details: for Percentage of lyses by induced CTLs, control: control for H5V; for Percentage of lyses by induced CTLs, control / Percentage of lyses by induced CTLs: E:T ratio 50:1; for Lysis of H5V cells and peptide-pulsed EL4 by induced CTLs (in words): not bEND3 or EL4 alone, FIG. 4; for Percentage of lyses by induced CTLs: targets H5V
Procedure: as §1, §2

Substance | Concentration at FI=0.5 [2] | Binding to H-2 Db (in words) [2] | IFN-γ secreting fresh spleen cells relative to irrelevant HPV E7 peptide / background ([3]; FIG. 2A) | IFN-γ secreting cells per million fresh DLN cells [3] | Percentage of lyses by induced CTLs, control [4] | Percentage of lyses by induced CTLs [4] | Percentage of lyses by induced CTLs, control [5] | Lysis of H5V cells and peptide-pulsed EL4 by induced CTLs (in words) [5] | Percentage of lyses by induced CTLs [5] | also measured
AMFFWLLLV [KDR775, human VEGFR-2/KDR peptide] | – | – | – | – | – | – | – | – | – | Affinity for MHC molecules relative to the other peptides (in words) [1]: substantially higher affinity
FSNSTNDILI [KDR3, murine VEGFR-2/KDR peptide, location 615-624] | about 3 μM | bind well | about 6 times | 161 per million cells | 0% | 21% | 3% | can lyse | 13% | Number of IFN-γ secreting fresh spleen cells after pulsing with peptide ([3]; fresh spleen cells of vaccinated mice, FIG. 2A): 176
HPV16E7 49-57: Human Papilloma Virus 16E7 49-57 peptide, known H-2 Db binder, positive control (RAHYNIVTF) [reference compound] | about 12.5 μM | – | – | – | – | – | – | – | – | –
LLSEKNVVKI [KDR1, murine VEGFR-2/KDR peptide, location 1033-1042] | – | – | – | – | – | – | – | – | – | IFN-γ secreting cells relative to background after 1 week in vitro culture with the vaccinated peptide ([3]; spleen cells restimulated 1 week in vitro, FIG. 2B): remained negative
P53 264-272: human P53 264-272 peptide, binds HLA-A2 but not H-2 Db, negative control [reference compound] | > 200 µM | does not bind | – | – | – | – | – | – | – | –
VILTNPISM [KDR2, murine VEGFR-2/KDR peptide, location 400-408] | about 24 μM | bind well | about 50 times | 360 per million cells | about 8% | 25% | ~1% | can lyse | 28% | –
